Target: T1, hyaluronidase (Bos taurus, UniProt Q2YDK3)
T1 sequence (Q2YDK3 36-553): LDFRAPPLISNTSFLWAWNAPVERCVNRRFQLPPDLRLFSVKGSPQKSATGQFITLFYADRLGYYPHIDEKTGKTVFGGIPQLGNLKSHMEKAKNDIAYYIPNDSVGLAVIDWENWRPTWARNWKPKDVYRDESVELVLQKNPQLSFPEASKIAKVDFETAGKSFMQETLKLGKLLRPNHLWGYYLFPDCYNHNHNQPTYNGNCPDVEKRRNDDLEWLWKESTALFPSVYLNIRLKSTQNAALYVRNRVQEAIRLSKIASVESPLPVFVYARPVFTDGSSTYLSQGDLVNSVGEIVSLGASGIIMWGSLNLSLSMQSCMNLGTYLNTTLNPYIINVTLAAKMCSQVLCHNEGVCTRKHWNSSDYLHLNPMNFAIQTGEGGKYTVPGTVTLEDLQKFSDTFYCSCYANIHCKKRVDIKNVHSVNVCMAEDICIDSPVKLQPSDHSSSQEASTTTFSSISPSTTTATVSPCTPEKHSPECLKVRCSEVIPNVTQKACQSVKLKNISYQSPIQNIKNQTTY
Assay: Hyaluronidase activity inhibition
Format: biochemical
Details: pH 4.0, 37° C.
Method: 5 μL of a hyaluronidase enzyme solution (MP Biomedicals, 4 mg/mL, 100 mM sodium acetate buffer (pH 4.0)) was added to 10 μL of an aqueous solution containing polysaccharides at an optional concentration, which was prepared from the polysaccharide sample containing the neutral polysaccharide fractions and the acidic polysaccharide fractions, the neutral polysaccharide fractions, and the acidic polysaccharide fractions, which were exopolysaccharides produced by the strain IJH-SONE68 and obtained in Example 4. The resultant mixture was incubated at 37° C. for 20 minutes. Thereafter, to the mixture, 10 μL of an enzyme-activating solution (0.5 mg/ml Compound 48/80 (manufactured by MP Biomedicals)), 3.75 mg CaCl2.2H2O, and 100 mM sodium acetate buffer (pH 4.0)) were added, and incubated again at 37° C. for 20 minutes. Subsequently, to the resultant mixture, 25 μL of a sodium hyaluronate solution (Wako Pure Chemical Industries, 0.8 mg/mL, 100 mM sodium acetate buffer (pH 4.0)) was added, and further reacted at 37° C. for 40 minutes. After the reaction, the reaction was terminated by adding 10 μL of 0.4 M NaOH aqueous solution. […] 40 μL of the reaction solution was mixed with 200 μL of p-DMAB solution (described below), the mixture was reacted at 37° C. for 20 minutes, and the absorbance at 585 nm was then measured. […]

Hyaluronidase activity inhibition IC50: 530 µg/mL
Structure (SMILES): CC1(C)[C@@H](O[C@H]2O[C@H](C(=O)[O-])[C@@H](O)[C@H](O)[C@H]2O[C@@H]2O[C@H](C(=O)[O-])[C@@H](O)[C@H](O)[C@H]2O)CC[C@]2(C)[C@H]3C(=O)C=C4[C@@H]5C[C@@](C)(C(=O)O)CC[C@]5(C)CC[C@@]4(C)[C@]3(C)CC[C@@H]12.[K+].[K+] [Dipotassium glycyrrhizinate]
